Laboratory results: patent publication CN110698367A, “一种n-(1-取代萘基)-4-甲氧基苯磺酰胺类化合物及其制备和应用” (Wenzhou Medical University, priority 2019, dated 2020)

Columns and labels:
[1] = tested on: non-small cell lung cancer cells A549 [非小细胞肺癌细胞A549]; experiment: MTT antiproliferation assay, A549; type: cell-based; conditions: Homo sapiens, 48 h
[2] = tested on: colon cancer cells HCT-116 [结肠癌细胞HCT-116]; experiment: MTT antiproliferation assay, HCT-116; type: cell-based; conditions: Homo sapiens, 48 h
[3] = tested on: breast cancer cells MDA-MB-231 [乳腺癌细胞MDA-MB-231]; experiment: MTT antiproliferation assay, MDA-MB-231; type: cell-based; conditions: Homo sapiens, 48 h
tumour cells [肿瘤细胞] = conditions: background statement, in words; cited from earlier work
[4] = target: upstream kinase Src [上游激酶JAK或Src] (Homo sapiens, UniProt P12931); conditions: background statement; in words; cited from earlier work
[5] = tested on: STAT1 phosphorylation [STAT1的磷酸化]; conditions: background statement; in words; cited from earlier work
[6] = tested on: STAT3 phosphorylation [STAT3的磷酸化]; conditions: background statement; in words; cited from earlier work
[7] = tested on: upstream kinase JAK [上游激酶JAK]; conditions: background statement; in words; cited from earlier work

Chain of upstream kinase Src [上游激酶JAK或Src] (P12931 whole entry): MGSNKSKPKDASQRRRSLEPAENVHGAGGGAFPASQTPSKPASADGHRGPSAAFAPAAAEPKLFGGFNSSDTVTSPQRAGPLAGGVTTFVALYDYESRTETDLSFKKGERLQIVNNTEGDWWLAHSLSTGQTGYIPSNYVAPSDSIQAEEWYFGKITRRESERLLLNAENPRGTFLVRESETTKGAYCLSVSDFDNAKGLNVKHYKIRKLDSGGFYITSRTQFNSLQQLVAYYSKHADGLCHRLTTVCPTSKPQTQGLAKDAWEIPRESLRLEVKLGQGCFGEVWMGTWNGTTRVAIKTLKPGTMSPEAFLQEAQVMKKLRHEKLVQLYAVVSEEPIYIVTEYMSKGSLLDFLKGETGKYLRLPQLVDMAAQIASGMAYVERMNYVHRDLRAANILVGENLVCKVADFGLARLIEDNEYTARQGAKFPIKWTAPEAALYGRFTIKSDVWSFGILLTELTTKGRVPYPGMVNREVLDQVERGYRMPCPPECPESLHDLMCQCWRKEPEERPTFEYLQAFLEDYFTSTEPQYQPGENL

With COc1ccc(S(=O)(=O)Nc2ccc(-c3ccc(C#N)c(F)c3)c3ccccc23)cc1 [VI 10] the IC50 [1] was 4.46 µM, the IC50 [2] was 4.83 µM and the IC50 [3] was 5.88 µM.

For COc1ccc(S(=O)(=O)Nc2cc(-c3c(O)ccc4ccccc34)c(O)c3ccccc23)cc1 [C188-9], the IC50 (tumour cells [肿瘤细胞]) is given as “较高”, the “inhibition of upstream kinase Src” value [4] is given as “无明显抑制作用” and the “inhibition of STAT1 phosphorylation” value [5] is given as “有一定的抑制作用”. The “inhibition of STAT3 phosphorylation” value [6] was “能抑制STAT3的磷酸化” and the “inhibition of upstream kinase JAK” value [7] was “无明显抑制作用”.
